Assay: xn = mol fraction of the nth substance listed
Settings: Liquid, Vibrating tube method

CCCCCCCCCCCCC [tridecane] + O=C=O
Settings | mass density [kg/m3]
333.3 K, 17000 kPa, x2 = 0.2526 | 746.5
333.3 K, 18000 kPa, x2 = 0.0955 | 743.9
333.3 K, 18000 kPa, x2 = 0.2526 | 747.3
333.3 K, 19000 kPa, x2 = 0.0955 | 744.6
333.3 K, 19000 kPa, x2 = 0.2526 | 748.1
333.3 K, 20000 kPa, x2 = 0.0955 | 745.3
333.3 K, 20000 kPa, x2 = 0.2526 | 748.9
333.3 K, 21000 kPa, x2 = 0.0955 | 746.1
333.3 K, 21000 kPa, x2 = 0.2526 | 749.7
333.3 K, 22000 kPa, x2 = 0.0955 | 746.7
333.3 K, 22000 kPa, x2 = 0.2526 | 750.5
333.3 K, 23000 kPa, x2 = 0.0955 | 747.4
333.3 K, 23000 kPa, x2 = 0.2526 | 751.2
333.3 K, 24000 kPa, x2 = 0.0955 | 748.1
333.3 K, 24000 kPa, x2 = 0.2526 | 751.9
333.3 K, 25000 kPa, x2 = 0.0955 | 748.7
333.3 K, 25000 kPa, x2 = 0.2526 | 752.6
343.02 K, 8000 kPa, x2 = 0.5259 | 739.5
343.02 K, 9000 kPa, x2 = 0.5259 | 740.9
343.02 K, 10000 kPa, x2 = 0.5259 | 742.3
343.02 K, 11000 kPa, x2 = 0.5259 | 743.7
343.02 K, 12000 kPa, x2 = 0.5259 | 745.1
343.02 K, 13000 kPa, x2 = 0.5259 | 746.4
343.02 K, 14000 kPa, x2 = 0.5259 | 747.6
343.02 K, 15000 kPa, x2 = 0.5259 | 748.9
343.02 K, 16000 kPa, x2 = 0.5259 | 750.1
343.02 K, 17000 kPa, x2 = 0.5259 | 751.3
343.02 K, 18000 kPa, x2 = 0.5259 | 752.5
343.02 K, 19000 kPa, x2 = 0.5259 | 753.7
343.02 K, 20000 kPa, x2 = 0.5259 | 754.8
343.02 K, 21000 kPa, x2 = 0.5259 | 755.9
343.02 K, 22000 kPa, x2 = 0.5259 | 757
343.02 K, 23000 kPa, x2 = 0.5259 | 758.1
343.02 K, 24000 kPa, x2 = 0.5259 | 759.2
343.02 K, 25000 kPa, x2 = 0.5259 | 760.2
343.13 K, 15000 kPa, x2 = 0.8978 | 710.8
343.13 K, 16000 kPa, x2 = 0.8978 | 723.5
343.13 K, 17000 kPa, x2 = 0.8978 | 733.2
343.13 K, 18000 kPa, x2 = 0.8978 | 741.1
343.13 K, 19000 kPa, x2 = 0.8978 | 748
343.13 K, 20000 kPa, x2 = 0.8978 | 755
343.13 K, 21000 kPa, x2 = 0.8978 | 761.4
343.13 K, 22000 kPa, x2 = 0.8978 | 767.3
343.13 K, 23000 kPa, x2 = 0.8978 | 772.8
343.13 K, 24000 kPa, x2 = 0.8978 | 778
343.13 K, 25000 kPa, x2 = 0.8978 | 782.8
343.14 K, 9000 kPa, x2 = 0.0955 | 729.8
343.14 K, 9000 kPa, x2 = 0.2526 | 732.2
343.14 K, 10000 kPa, x2 = 0.0955 | 730.6
343.14 K, 10000 kPa, x2 = 0.2526 | 733.2
343.14 K, 11000 kPa, x2 = 0.0955 | 731.5
343.14 K, 11000 kPa, x2 = 0.2526 | 734.1
343.14 K, 12000 kPa, x2 = 0.0955 | 732.4
343.14 K, 12000 kPa, x2 = 0.2526 | 735
343.14 K, 13000 kPa, x2 = 0.0955 | 733.2
343.14 K, 13000 kPa, x2 = 0.2526 | 736
343.14 K, 14000 kPa, x2 = 0.0955 | 734.1
343.14 K, 14000 kPa, x2 = 0.2526 | 736.9
343.14 K, 15000 kPa, x2 = 0.0955 | 734.9
343.14 K, 15000 kPa, x2 = 0.2526 | 737.8
343.14 K, 16000 kPa, x2 = 0.0955 | 735.7
343.14 K, 16000 kPa, x2 = 0.2526 | 738.6
343.14 K, 17000 kPa, x2 = 0.0955 | 736.5
343.14 K, 17000 kPa, x2 = 0.2526 | 739.5
343.14 K, 18000 kPa, x2 = 0.0955 | 737.3
343.14 K, 18000 kPa, x2 = 0.2526 | 740.4
343.14 K, 19000 kPa, x2 = 0.0955 | 738.1
343.14 K, 19000 kPa, x2 = 0.2526 | 741.2
343.14 K, 20000 kPa, x2 = 0.0955 | 738.9
343.14 K, 20000 kPa, x2 = 0.2526 | 742
343.14 K, 21000 kPa, x2 = 0.0955 | 739.6
343.14 K, 21000 kPa, x2 = 0.2526 | 742.8
343.14 K, 22000 kPa, x2 = 0.0955 | 740.4
343.14 K, 22000 kPa, x2 = 0.2526 | 743.6
343.14 K, 23000 kPa, x2 = 0.0955 | 741.1
343.14 K, 23000 kPa, x2 = 0.2526 | 744.4
343.14 K, 24000 kPa, x2 = 0.0955 | 741.8
343.14 K, 24000 kPa, x2 = 0.2526 | 745.1
343.14 K, 25000 kPa, x2 = 0.0955 | 742.5
343.14 K, 25000 kPa, x2 = 0.2526 | 745.9
343.32 K, 14000 kPa, x2 = 0.7549 | 752.1
343.32 K, 15000 kPa, x2 = 0.7549 | 755.2
343.32 K, 16000 kPa, x2 = 0.7549 | 758
343.32 K, 17000 kPa, x2 = 0.7549 | 760.9
343.32 K, 18000 kPa, x2 = 0.7549 | 763.8
343.32 K, 19000 kPa, x2 = 0.7549 | 766.7
343.32 K, 20000 kPa, x2 = 0.7549 | 769.6
343.32 K, 21000 kPa, x2 = 0.7549 | 772.4
343.32 K, 22000 kPa, x2 = 0.7549 | 775.2
343.32 K, 23000 kPa, x2 = 0.7549 | 777.9
343.32 K, 24000 kPa, x2 = 0.7549 | 780.7
343.32 K, 25000 kPa, x2 = 0.7549 | 783.5
353.12 K, 9000 kPa, x2 = 0.0955 | 722.6
353.12 K, 9000 kPa, x2 = 0.2526 | 724.8
353.12 K, 10000 kPa, x2 = 0.0955 | 723.6
353.12 K, 10000 kPa, x2 = 0.2526 | 725.8
353.12 K, 11000 kPa, x2 = 0.0955 | 724.5
353.12 K, 11000 kPa, x2 = 0.2526 | 726.8
353.12 K, 12000 kPa, x2 = 0.0955 | 725.4
353.12 K, 12000 kPa, x2 = 0.2526 | 727.8
353.12 K, 13000 kPa, x2 = 0.0955 | 726.3
353.12 K, 13000 kPa, x2 = 0.2526 | 728.8
353.12 K, 14000 kPa, x2 = 0.0955 | 727.2
353.12 K, 14000 kPa, x2 = 0.2526 | 729.7
353.12 K, 15000 kPa, x2 = 0.0955 | 728.1
353.12 K, 15000 kPa, x2 = 0.2526 | 730.7
353.12 K, 16000 kPa, x2 = 0.0955 | 729
353.12 K, 16000 kPa, x2 = 0.2526 | 731.6
353.12 K, 17000 kPa, x2 = 0.0955 | 729.9
353.12 K, 17000 kPa, x2 = 0.2526 | 732.5
353.12 K, 18000 kPa, x2 = 0.0955 | 730.7
353.12 K, 18000 kPa, x2 = 0.2526 | 733.4
353.12 K, 19000 kPa, x2 = 0.0955 | 731.5
353.12 K, 19000 kPa, x2 = 0.2526 | 734.3
